Source: article PMC11277489, “Novel Piperazine Derivatives of Vindoline as Anticancer Agents” (International Journal of Molecular Sciences, 2024)
Read-outs that look alike come from different tables or passages of the source.

Legend:
HOP-92 = test: NCI60 one-dose screen (10 μM), Non-small Cell Lung Cancer; assay type: cell-based; details: Homo sapiens; 10 μM; HOP-92, Non-small Cell Lung Cancer; read-out: Growth percent rate
NCI-H226 = test: as above; assay type: cell-based; details: Homo sapiens
SF-268 = test: NCI60 one-dose screen (10 μM), CNS Cancer; assay type: cell-based; details: Homo sapiens
LOX IMVI = test: NCI60 one-dose screen (10 μM), Melanoma; assay type: cell-based, human; details: Homo sapiens, LOX IMVI, read-out: Growth percent rate
UACC-62 = test: NCI60 one-dose screen (10 μM), Melanoma; assay type: cell-based; details: Homo sapiens
OVCAR-4 = test: NCI60 one-dose screen (10 μM), Ovarian Cancer; assay type: cell-based; details: Homo sapiens
NCI/ADR-RES = test: NCI60 one-dose screen (10 μM), Ovarian Cancer; assay type: cell-based; details: Homo sapiens, read-out: Growth percent rate
SK-OV-3 = test: NCI60 one-dose screen (10 μM), Ovarian Cancer; assay type: cell-based; details: Homo sapiens
RXF 393 = test: NCI60 one-dose screen (10 μM), Renal Cancer; assay type: cell-based, human; details: Homo sapiens
PC-3 = test: NCI60 one-dose screen (10 μM), Prostate Cancer; assay type: cell-based; details: Homo sapiens; 10 μM; PC-3, Prostate Cancer; read-out: Growth percent rate
DU-145 = test: NCI60 one-dose screen (10 μM), Prostate Cancer; assay type: cell-based; details: Homo sapiens
BT-549 = test: NCI60 one-dose screen (10 μM), Breast Cancer; assay type: cell-based; details: Homo sapiens
MDA-MB-468 = test: NCI60 one-dose screen (10 μM), Breast Cancer; assay type: cell-based; details: Homo sapiens
[1] = test system: 60 human tumor cell lines (NCI60); test: NCI60 one-dose screen (10 μM), whole panel; assay type: cell-based; details: for activity at 10 µM: read-out: Growth percent rate, Mean
SR = test: NCI60 one-dose screen (10 μM), Leukemia; assay type: cell-based; details: Homo sapiens, read-out: Growth percent rate
OVCAR-5 = test: NCI60 one-dose screen (10 μM), Ovarian Cancer; assay type: cell-based; details: Homo sapiens
UO-31 = test: NCI60 one-dose screen (10 μM), Renal Cancer; assay type: cell-based; details: Homo sapiens
MDA-MB-231/ATCC = test: NCI60 one-dose screen (10 μM), Breast Cancer; assay type: cell-based, human; details: Homo sapiens
T-47D = test: NCI60 one-dose screen (10 μM), Breast Cancer; assay type: cell-based; details: Homo sapiens, T47D, read-out: Growth percent rate
[2] = 10 μM, NCI-H226, Non-small Cell Lung Cancer, read-out: Growth percent rate
[3] = 10 μM, SF-268, CNS Cancer, read-out: Growth percent rate
[4] = 10 μM, UACC-62, Melanoma, read-out: Growth percent rate
[5] = 10 μM, OVCAR-4, Ovarian Cancer, read-out: Growth percent rate
[6] = 10 μM, SK-OV-3, Ovarian Cancer, read-out: Growth percent rate
[7] = 10 μM, RXF 393, Renal Cancer, read-out: Growth percent rate
[8] = 10 μM, DU-145, Prostate Cancer, read-out: Growth percent rate
[9] = 10 μM, BT-549, Breast Cancer, read-out: Growth percent rate
[10] = 10 μM, MDA-MB-468, Breast Cancer, read-out: Growth percent rate
[11] = 10 μM, mean over 60 human cancer cell lines
[12] = 10 μM, OVCAR-5, Ovarian Cancer, read-out: Growth percent rate
[13] = 10 μM, UO-31, Renal Cancer, read-out: Growth percent rate
[14] = 10 μM, MDA-MB-231/ATCC, Breast Cancer, read-out: Growth percent rate

Structure (SMILES)	activity at 10 µM (HOP-92)	activity at 10 µM (NCI-H226; [2])	activity at 10 µM (SF-268; [3])	activity at 10 µM (LOX IMVI; 10 μM, Melanoma)	activity at 10 µM (UACC-62; [4])	activity at 10 µM (OVCAR-4; [5])	activity at 10 µM (NCI/ADR-RES; 10 μM, Ovarian Cancer)	activity at 10 µM (SK-OV-3; [6])	activity at 10 µM (RXF 393; [7])	activity at 10 µM (PC-3)	activity at 10 µM (DU-145; [8])	activity at 10 µM (BT-549; [9])	activity at 10 µM (MDA-MB-468; [10])	activity at 10 µM [1, 11]	activity at 10 µM (SR; 10 μM, Leukemia)	activity at 10 µM (OVCAR-5; [12])	activity at 10 µM (UO-31; [13])	activity at 10 µM (MDA-MB-231/ATCC; [14])	activity at 10 µM (T-47D; 10 μM, T-47D, Breast Cancer)	further results
CCC12C=CCN3CCC4(c5ccc(OC)cc5N(C)C4C(O)(C(=O)OC)C1OC(=O)CCC(=O)O)C32 (stereo not shown) [Compound 15, 17-(O-3-carboxypropanoyl)vindoline]	98.8%	66.6%	87.2%	107%	92.4%	80.2%	94.6%	92.3%	96.6%	87.7%	98.1%	80.5%	98.7%	91.7%						antiproliferative effect (in words) ([1]; 10 μM one-dose, NCI60): a notable antiproliferative effect was not shown
CCC12C=CCN3CCC4(c5cc(NC(=O)CN6CCN(Cc7ccc(C(F)(F)F)cc7)CC6)c(OC)cc5N(C)C4C(O)(C(=O)OC)C1OC(C)=O)C32 (stereo not shown) [Compound 18]																				activity at 10 µM (SR): 48.2%; activity at 10 µM (NCI-H226; NCI-H226, read-out: Growth percent rate): 67.7%; activity at 10 µM (SF-268; SF-268, read-out: Growth percent rate): 65.2%; activity at 10 µM (LOX IMVI): 58.4%; activity at 10 µM (UACC-62; UACC-62, read-out: Growth percent rate): 74.4%; activity at 10 µM (OVCAR-4; OVCAR-4, read-out: Growth percent rate): 63.1%; activity at 10 µM (OVCAR-5; OVCAR-5, read-out: Growth percent rate): 108%; activity at 10 µM (NCI/ADR-RES): 61.9%; activity at 10 µM (SK-OV-3; SK-OV-3, read-out: Growth percent rate): 87%; activity at 10 µM (RXF 393; RXF 393, read-out: Growth percent rate): 41%; activity at 10 µM (UO-31; UO-31, read-out: Growth percent rate): 50%; activity at 10 µM (DU-145; DU-145, read-out: Growth percent rate): 71.6%; activity at 10 µM (MDA-MB-231/ATCC; MDA-MB-231, read-out: Growth percent rate): 43.7%; activity at 10 µM (BT-549; BT-549, read-out: Growth percent rate): 47%; activity at 10 µM (T-47D): 51.4%; activity at 10 µM (MDA-MB-468; MDA-MB-468, read-out: Growth percent rate): 39.8%; activity at 10 µM ([1]; Homo sapiens): 60.6%
CCC12C=CCN3CCC4(c5cc(NC(=O)CN6CCN(C(=O)c7ccco7)CC6)c(OC)cc5N(C)C4C(O)(C(=O)OC)C1OC(C)=O)C32 (stereo not shown) [Compound 21]		111%	106%	98.5%	103%	108%	112%	113%	133%		110%	117%	120%	108%	97.2%	121%	89.3%	98.8%	111%	
CCC12C=CCN3CCC4(c5ccc(OC)cc5N(C)C4C(O)(C(=O)OC)C1OC(=O)CCCN1CCN(C)CC1)C32 (stereo not shown) [Compound 3]	80.9%		90.8%	84%	83.2%	101%	94.7%	93.3%	73%	92.9%	99.6%		70.5%	87.8%		96.4%	75.8%	80.4%	90.9%	
CC[C@]12C=CCN3CC[C@@]4(c5ccc(OC)cc5N(C)[C@H]4[C@@](O)(C(=O)OC)[C@@H]1OC(=O)CCCN1CCN(C(=O)c4ccco4)CC1)[C@@H]32 [Compound 26]		94.9%	97.3%	96.6%	86.4%	94%	91.8%	108%	102%	80.5%	105%	96.8%		96.8%	75.4%	112%	80.6%	102%	82.2%	
